Experimental data: US9242945B2, “Substituted 2-benzylidene-2H-benzo[b][1,4]thiazin-3(4H)-ones, derivatives thereof, and therapeutic uses thereof” (TEMPLE UNIVERSITY—OF THE COMMONWEALTH SYSTEM OF HIGHER …, priority 2011, dated 2016)
Read-outs that look alike come from different tables or passages of the source.

Tests used:
[1] = system: DU145 (prostate cancer); experiment: Cytotoxicity assay, DU145 tumor cells; type: cell-based; conditions: Homo sapiens, DU-145, 96 h treatment
Protocol: (§1) The effect of the compounds of the invention on tumor cells was determined by the assay described by Latham et al., Oncogene 12:827-837 (1996). Tumor cells K562 (chronic myelogenous leukemia; leukemia cell line +ve for Bcr-Abl) or DU145 (prostate cancer) were plated in 12-well dishes at a cell density of 2.5×10^4 cells well. The plated cells were treated 24 hours later with a compound of the invention dissolved in DMSO at multiple concentrations ranging from 0.01 μM to 100 μM. The plates were examined 96 hours later under an inverted microscope, Olympus CK-2 using a 10× objective, and compound activity was noted by physical observation. When necessary, the total number of viable cells was determined by trypsinizing the wells and counting the number of viable cells, as determined by trypan blue exclusion, using a hemacytometer. Where “Lower” and “Upper” value are provided in Table 5, the IC50 was determined to be within that range. When only a “Lower” value is provided and no “Upper” value is listed, the IC50 was that value, or less than or greater than that value, as set forth in the Table.
(§2) The cytotoxicity of Compound 42, (Z)-6-((2,6-dichlorobenzyl)sulfonyl)-2-(4-hydroxy-3-nitrobenzylidene)-2H-benzo[b][1,4]thiazin-3(4H)-one, was determined according the assay method of Example 7 on the prostate (androgen dependent or independent), breast and pancreatic cancer cell lines listed in Table 6A, below, and the additional cell lines listed in Table 6B, below. The human mesenchymal stem cell line HMSC.hTERT and normal human fibroblast cell line HFL was included in the test.

[2] = system: K562 (chronic myelogenous leukemia; leukemia cell line +ve for Bcr-Abl); experiment: Cytotoxicity assay, K562 tumor cells; type: cell-based; conditions: Homo sapiens, K562, 96 h treatment
Protocol: as §1, §2

[3] = lower limit of the IC50 range, or the IC50 itself (or its bound) where no Upper value is listed, read-out: DU145 IC50 (μm) Lower (μm)
[4] = upper limit of the IC50 range, read-out: DU145 IC50 (μm) Upper (μm)
[5] = lower limit of the IC50 range, or the IC50 itself (or its bound) where no Upper value is listed, read-out: K562 IC50 (μm) Lower (μm)
[6] = upper limit of the IC50 range, read-out: K562 IC50 (μm) Upper (μm)

With O=C1Nc2cc(S(=O)(=O)Cc3c(Cl)cccc3Cl)ccc2S/C1=C\c1ccc(Cl)cc1 [Compound 17, (Z)-2-(4-chlorobenzylidene)-6-((2,6-dichlorobenzyl)sulfonyl)-2H-benzo[b][1,4]thiazin-3(4H)-one] the IC50 [1, 3] was no less than 1000 nM, the IC50 [1, 4] was no more than 10000 nM and the IC50 [2, 5] was no less than 1000 nM. For the same compound, the IC50 [2, 6] was no more than 10000 nM.

O=C1Nc2cc(S(=O)(=O)Cc3c(Cl)cccc3Cl)ccc2S/C1=C\c1ccc(OCc2ccccc2)c([N+](=O)[O-])c1 [Compound 41, (Z)-2-(4-(benzyloxy)-3-nitrobenzylidene)-6-((2,6-dichlorobenzyl)sulfonyl)-2H-benzo[b][1,4]thiazin-3(4H)-one] was tested, and the IC50 [1, 3] was 1500 nM and the IC50 [2, 5] was 750 nM.

In the case of O=C1Nc2cc(S(=O)(=O)Cc3c(Cl)cccc3Cl)ccc2S/C1=C\c1ccc([N+](=O)[O-])cc1 [Compound 14, (Z)-6-((2,6-dichlorobenzyl)sulfonyl)-2-(4-nitrobenzylidene)-2H-benzo[b][1,4]thiazin-3(4H)-one], the IC50 [1, 3] is reported as no less than 1000 nM, the IC50 [1, 4] is reported as no more than 10000 nM and the IC50 [2, 5] is reported as no less than 1000 nM. For the same compound, the IC50 [2, 6] was no more than 10000 nM.

In the case of Cc1ccc(S(=O)(=O)Oc2ccc(/C=C3\Sc4ccc(S(=O)(=O)Cc5c(Cl)cccc5Cl)cc4NC3=O)cc2[N+](=O)[O-])cc1 [Compound 38, (Z)-4-((6-((2,6-dichlorobenzyl)sulfonyl)-3-oxo-3,4-dihydro-2H-benzo[b][1,4]thiazin-2-ylidene)methyl)-2-nitrophenyl 4-methylbenzenesulfonate], the IC50 [1, 3] is reported as 90 nM and the IC50 [2, 5] is reported as 100 nM.

For CC(=O)Oc1ccc(/C=C2\Sc3cc(F)ccc3NC2=O)cc1[N+](=O)[O-] [Compound 6, (Z)-4-((7-fluoro-3-oxo-3,4-dihydro-2H-benzo[b][1,4]thiazin-2-ylidene)methyl)-2-nitrophenyl acetate], the IC50 [1, 4] was no more than 1000 nM, the IC50 [2, 5] was no less than 1000 nM and the IC50 [2, 6] was no more than 10000 nM.

For CC(=O)Oc1ccc(/C=C2\Sc3ccc(F)cc3NC2=O)cc1[N+](=O)[O-] [Compound 7, (Z)-4-((6-fluoro-3-oxo-3,4-dihydro-2H-benzo[b][1,4]thiazin-2-ylidene)methyl)-2-nitrophenyl acetate], the IC50 [1, 3] was no less than 1000 nM, the IC50 [1, 4] was no more than 10000 nM and the IC50 [2, 5] was no less than 1000 nM. It also gave an IC50 [2, 6] of no more than 10000 nM.

Compound O=C1Nc2cc(S(=O)(=O)Cc3c(Cl)cccc3Cl)ccc2S/C1=C\c1ccccc1 [Compound 10, (Z)-2-benzylidene-6-((2,6-dichlorobenzyl)sulfonyl)-2H-benzo[b][1,4]thiazin-3(4H)-one] has an IC50 [1, 3] of less than 1000 nM, an IC50 [2, 5] of no less than 1000 nM and an IC50 [2, 6] of no more than 10000 nM.

Work on O=C1Nc2cc(S(=O)(=O)Cc3c(Cl)cccc3Cl)ccc2S/C1=C\c1ccc(F)cc1 [Compound 16, (Z)-6-((2,6-dichlorobenzyl)sulfonyl)-2-(4-fluorobenzylidene)-2H-benzo[b][1,4]thiazin-3(4H)-one] yielded an IC50 [1, 3] of no less than 1000 nM, an IC50 [1, 4] of no more than 10000 nM and an IC50 [2, 5] of no less than 1000 nM. For the same compound, the IC50 [2, 6] was no more than 10000 nM.

CC(=O)Oc1ccc(/C=C2\Sc3cc(C)ccc3NC2=O)cc1[N+](=O)[O-] [Compound 4, (Z)-4-((7-methyl-3-oxo-3,4-dihydro-2H-benzo[b][1,4]thiazin-2-ylidene)methyl)-2-nitrophenyl acetate] gave an IC50 [1, 3] of no less than 1000 nM, an IC50 [1, 4] of no more than 10000 nM and an IC50 [2, 5] of no less than 1000 nM. For the same compound, the IC50 [2, 6] was no more than 10000 nM.

Work on O=C1Nc2cc(S(=O)(=O)Cc3c(Cl)cccc3Cl)ccc2S/C1=C\c1ccc(Cl)cc1Cl [Compound 22, (Z)-6-((2,6-dichlorobenzyl)sulfonyl)-2-(2,4-dichlorobenzylidene)-2H-benzo[b][1,4]thiazin-3(4H)-one] yielded an IC50 [1, 3] of no less than 1000 nM, an IC50 [1, 4] of no more than 10000 nM and an IC50 [2, 5] of no less than 1000 nM. It also gave an IC50 [2, 6] of no more than 10000 nM.

In the case of O=C1Nc2cc(S(=O)(=O)Cc3c(Cl)cccc3Cl)ccc2S/C1=C\c1ccnc(N2CCOCC2)n1 [Compound 37, (Z)-6-((2,6-dichlorobenzyl)sulfonyl)-2-((2-morpholinopyrimidin-4-yl)methylene)-2H-benzo[b][1,4]thiazin-3(4H)-one], the IC50 [1, 3] is reported as no less than 1000 nM, the IC50 [1, 4] is reported as no more than 10000 nM and the IC50 [2, 5] is reported as no less than 1000 nM. It also gave an IC50 [2, 6] of no more than 10000 nM.

COC(=O)c1ccc(/C=C2\Sc3ccc(S(=O)(=O)Cc4c(Cl)cccc4Cl)cc3NC2=O)cc1 [Compound 32, (Z)-methyl 4-((6-((2,6-dichlorobenzyl)sulfonyl)-3-oxo-3,4-dihydro-2H-benzo[b][1,4]thiazin-2-ylidene)methyl)benzoate] showed an IC50 [1, 3] of no less than 500 nM, an IC50 [1, 4] of no more than 1000 nM and an IC50 [2, 5] of no less than 1000 nM. For the same compound, the IC50 [2, 6] was no more than 10000 nM.

Work on COc1ccc2c(c1)S/C(=C\c1ccc(OC(C)=O)c([N+](=O)[O-])c1)C(=O)N2C(C)=O [Compound 40, (Z)-4-((4-acetyl-7-methoxy-3-oxo-3,4-dihydro-2H-benzo[b][1,4]thiazin-2-ylidene)methyl)-2-nitrophenyl acetate] yielded an IC50 [1, 3] of 2000 nM and an IC50 [2, 5] of 1500 nM.

With COC(=O)c1ccc(/C=C2\Sc3ccc(S(=O)(=O)Cc4c(Cl)cccc4Cl)cc3NC2=O)c([N+](=O)[O-])c1 [Compound 35, (Z)-methyl 4-((6-((2,6-dichlorobenzyl)sulfonyl)-3-oxo-3,4-dihydro-2H-benzo[b][1,4]thiazin-2-ylidene)methyl)-3-nitrobenzoate] the IC50 [1, 3] was greater than 10000 nM, the IC50 [2, 5] was no less than 1000 nM and the IC50 [2, 6] was no more than 10000 nM.

For O=C1Nc2ccc(F)cc2S/C1=C\c1ccc(OCc2ccccc2)c([N+](=O)[O-])c1 [Compound 43, (Z)-2-(4-(benzyloxy)-3-nitrobenzylidene)-7-fluoro-2H-benzo[b][1,4]thiazin-3(4H)-one], the IC50 [1, 3] was greater than 10000 nM and the IC50 [2, 5] was greater than 10000 nM.

In the case of CC(=O)Oc1ccc(/C=C2\Sc3ccc(Cl)cc3NC2=O)cc1[N+](=O)[O-] [Compound 1, (Z)-4-((6-chloro-3-oxo-3,4-dihydro-2H-benzo[b][1,4]thiazin-2-ylidene)methyl)-2-nitrophenyl acetate], the IC50 [1, 3] is reported as no less than 1000 nM, the IC50 [1, 4] is reported as no more than 10000 nM and the IC50 [2, 5] is reported as no less than 10000 nM. It also gave an IC50 [2, 6] of no more than 25000 nM.

Compound COc1ccc(/C=C2\Sc3ccc(S(=O)(=O)Cc4c(Cl)cccc4Cl)cc3NC2=O)cc1N [Compound 12, (Z)-2-(3-amino-4-methoxybenzylidene)-6-((2,6-dichlorobenzyl)sulfonyl)-2H-benzo[b][1,4]thiazin-3(4H)-one] has an IC50 [1, 3] of no less than 250 nM, an IC50 [1, 4] of no more than 500 nM and an IC50 [2, 5] of no less than 100 nM. The IC50 [2, 6] was no more than 250 nM.

With O=C1Nc2cc(S(=O)(=O)Cc3c(Cl)cccc3Cl)ccc2S/C1=C\c1cccs1 [Compound 33, (Z)-6-((2,6-dichlorobenzyl)sulfonyl)-2-(thiophen-2-ylmethylene)-2H-benzo[b][1,4]thiazin-3(4H)-one] the IC50 [1, 3] was no less than 500 nM, the IC50 [1, 4] was no more than 1000 nM and the IC50 [2, 5] was no less than 500 nM. It also gave an IC50 [2, 6] of no more than 1000 nM.

With CC(=O)n1cc(/C=C2\Sc3ccc(S(=O)(=O)Cc4c(Cl)cccc4Cl)cc3NC2=O)c2ccccc21 [Compound 26, (Z)-2-((1-acetyl-1H-indol-3-yl)methylene)-6-((2,6-dichlorobenzyl)sulfonyl)-2H-benzo[b][1,4]thiazin-3(4H)-one] the IC50 [1, 3] was no less than 500 nM, the IC50 [1, 4] was no more than 1000 nM and the IC50 [2, 5] was no less than 500 nM. For the same compound, the IC50 [2, 6] was no more than 1000 nM.

CC(=O)Oc1ccc(/C=C2\Sc3cc(Br)ccc3NC2=O)cc1[N+](=O)[O-] [Compound 3, (Z)-4-((7-bromo-3-oxo-3,4-dihydro-2H-benzo[b][1,4]thiazin-2-ylidene)methyl)-2-nitrophenyl acetate] gave an IC50 [1, 3] of no less than 10000 nM, an IC50 [1, 4] of no more than 25000 nM and an IC50 [2, 5] of no less than 1000 nM. It also gave an IC50 [2, 6] of no more than 10000 nM.
